Experimental data reported in patent publication US20210401863A1, “TREATMENT AND PREVENTION OF NEISSERIA GONORRHOEAE INFECTION USING CMP-ACTIVATED NONULOSONATE ANALOG COMPOUNDS” (NATIONAL RESEARCH COUNCIL OF CANADA, priority 2015, published 2021).
Where two headings read alike, the source gives them in different places.

Legend:
[1] = system: N. gonorrhoeae F62 ΔlgtD; format: cell-based, Neisseria gonorrhoeae
Experimental: Generally, bacteria (F62 ΔlgtD) grown overnight on chocolate agar plates were suspended in gonococcal liquid media supplemented with IsoVitaleX [29] that contained specified concentrations of the CMP-nonulosonate. Bacteria were then incubated at 37° C. for the period specified in each experiment.
Serum bactericidal assays were performed as follows, similar to methods outlined in [32,33] and in U.S. Pat. No. 9,765,106. Bacteria were harvested from an overnight culture on chocolate agar plates and ˜10^5 CFU of Ng were grown in liquid media containing the concentrations of CMP-NuIO as specified for each experiment. Bacteria were diluted in Morse A and ˜2000 CFU of Ng F62 ΔlgtD were incubated with NHS (concentration specified for each experiment). The final reaction volumes were maintained at 150 μL. Aliquots of 25 μL of reaction mixtures were plated onto chocolate agar in duplicate at the beginning of the assay (t0) and again after incubation at 37° C. for 30 minutes (t30). Survival was calculated as the number of viable colonies at t30 relative to t0.
Addition of a terminal Neu5Ac residue to the LNnT LOS of N. gonorrhoeae that occurs in vivo or following the addition of CMP-Neu5Ac to growth media results in resistance to complement-dependent killing. We next determined the effects of LNnT incorporation of KDN on the ability of N. gonorrhoeae F62 ΔlgtD to resist complement-dependent killing by normal human sera at concentrations of 3.3% or 10%. Bacteria were grown either in media alone, or media supplemented with 20 μg/mL of CMP-Neu5Ac or CMP-KDN. In addition, CMP-NulO competition experiments were also performed with CMP-Neu5Ac, CMP-Leg5Ac7Ac and CMP-KDN at CMP-NulO concentrations of either 20 μg/mL or 2 μg/mL as indicated, where the second CMP-NulO was added 15 minutes after the first (Table 1 below). To note, these CMP-NulO competition experiments are a method to examine the ability of select CMP-NulOs to counter the enhanced serum resistance due to CMP-Neu5Ac addition, providing information on their therapeutic potential (as any potential therapeutic will be required to compete with CMP-Neu5Ac in vivo).

[2] = system: purified human FH; experiment: Factor H (FH) binding to gonococci by flow cytometry; format: cell-based; settings: F62 ΔlgtD grown with 20 μg/mL CMP-NulO, human FH 20 μg/mL
Experimental: FIG. 1: CMP-KDN serves as a substrate for gonococcal LOS and incorporation of KDN on gonococcal lacto-N-neotetraose LOS enhances factor H (FH) binding. A. Incorporation of KDN by gonococci. Gonococcal strain F62 ΔlgtD (expresses lacto-N-neotetraose (LNnT) from Hepl) was grown in media containing CMP-KDN (20 μg/mL) and binding of mAb 3F11 was measured by flow cytometry. mAb 3F11 binds only to […] LNnT; substitution of the terminal Gal of LNnT, for example with a NulO, will decrease mAb 3F11 binding. Approximately 5×10^7 bacteria were incubated with mAb 3F11 tissue culture supernatants for 15 minutes at 37° C. Binding of mAb 3F11 was disclosed with anti-mouse IgM FITC (Sigma; dilution of 1:100). Bacteria grown in CMP-Neu5Ac or in media alone were used as positive and negative controls for sialylation, respectively. A representative histogram is shown in the upper panel. […] B. Factor H (FH) binding to gonococci grown in CMP-KDN. Approximately 5×10^7 bacteria grown in media alone (no sialic acid), media plus CMP-Neu5Ac (20 μg/mL; positive control for FH binding) or in media containing CMP-KDN (20 μg/mL) were incubated with purified human FH (20 μg/mL) in HBSS** for 15 minutes at 37° C. and bound FH was detected with affinity isolated goat anti-human FH followed by anti-goat IgG FITC (Sigma; 1:100 dilution). A representative histogram is shown in the upper panel. […]

Compound: Nc1ccn([C@@H]2O[C@H](COP(=O)(O)O[C@@]3(C(=O)O)CC(O)[C@@H](O)C([C@H](O)[C@H](O)CO)O3)C(O)C2O)c(=O)n1 (stereo partly drawn) [CMP-KDN, cytidine 5′-monophospho-3-deoxy-D-glycero-D-galacto-nonulosonic acid]
- % survival in 3.3% serum ([1]; CMP-Neu5Ac (20 μg/mL) first, labelled CMP-NulO (20 μg/mL) added 15 minutes later, 3.3% serum): 107%
- % survival in 10% serum ([1]; CMP-Neu5Ac (20 μg/mL) first, labelled CMP-NulO (20 μg/mL) added 15 minutes later, 10% serum): 108%
- serum resistance (in words) ([1]; CMP-NulO alone, 3.3% serum): complete serum resistance was observed
- serum sensitivity (in words) ([1]; CMP-NulO alone, 10% serum): serum sensitivity was observed
- countering of serum resistance mediated by CMP-Neu5Ac (competition, in words) ([1]; CMP-NulO competition, second CMP-NulO 15 minutes after the first, 3.3% and 10% serum): could only counter CMP-Neu5Ac induced serum resistance if it was provided before CMP-Neu5Ac
- % survival in 3.3% serum ([1]; Table 1, CMP-NulO 20 μg/mL alone, 3.3% serum): 110%
- % survival in 10% serum ([1]; Table 1, CMP-NulO 20 μg/mL alone, 10% serum): 11%
- % survival in 3.3% serum ([1]; labelled CMP-NulO (20 μg/mL) first, CMP-Neu5Ac (2 μg/mL) added 15 minutes later, 3.3% serum): 107%
- % survival in 10% serum ([1]; labelled CMP-NulO (20 μg/mL) first, CMP-Neu5Ac (2 μg/mL) added 15 minutes later, 10% serum): 10%
- % survival in 3.3% serum ([1]; labelled CMP-NulO (20 μg/mL) first, CMP-Neu5Ac (20 μg/mL) added 15 minutes later, 3.3% serum): 107%
- % survival in 10% serum ([1]; labelled CMP-NulO (20 μg/mL) first, CMP-Neu5Ac (20 μg/mL) added 15 minutes later, 10% serum): 11%
- fH binding to bacteria [2]: half of that observed for Neu5Ac
